Experimental data reported in paper PMC5520492, “Inhibition of DNA2 nuclease as a therapeutic strategy targeting replication stress in cancer cells” (Oncogenesis, 2017).
“Also recorded” adds a separate entry of the source.

Legend:
hDNA2 [1] = target: T1, hDNA2 (Homo sapiens, UniProt P51530); test: 5' flap processing by hDNA2; type: biochemical; conditions: DNA2 […], Y DNA substrate 5 nM ends
T1 construct: made in house
T1 sequence (P51530 1-1060): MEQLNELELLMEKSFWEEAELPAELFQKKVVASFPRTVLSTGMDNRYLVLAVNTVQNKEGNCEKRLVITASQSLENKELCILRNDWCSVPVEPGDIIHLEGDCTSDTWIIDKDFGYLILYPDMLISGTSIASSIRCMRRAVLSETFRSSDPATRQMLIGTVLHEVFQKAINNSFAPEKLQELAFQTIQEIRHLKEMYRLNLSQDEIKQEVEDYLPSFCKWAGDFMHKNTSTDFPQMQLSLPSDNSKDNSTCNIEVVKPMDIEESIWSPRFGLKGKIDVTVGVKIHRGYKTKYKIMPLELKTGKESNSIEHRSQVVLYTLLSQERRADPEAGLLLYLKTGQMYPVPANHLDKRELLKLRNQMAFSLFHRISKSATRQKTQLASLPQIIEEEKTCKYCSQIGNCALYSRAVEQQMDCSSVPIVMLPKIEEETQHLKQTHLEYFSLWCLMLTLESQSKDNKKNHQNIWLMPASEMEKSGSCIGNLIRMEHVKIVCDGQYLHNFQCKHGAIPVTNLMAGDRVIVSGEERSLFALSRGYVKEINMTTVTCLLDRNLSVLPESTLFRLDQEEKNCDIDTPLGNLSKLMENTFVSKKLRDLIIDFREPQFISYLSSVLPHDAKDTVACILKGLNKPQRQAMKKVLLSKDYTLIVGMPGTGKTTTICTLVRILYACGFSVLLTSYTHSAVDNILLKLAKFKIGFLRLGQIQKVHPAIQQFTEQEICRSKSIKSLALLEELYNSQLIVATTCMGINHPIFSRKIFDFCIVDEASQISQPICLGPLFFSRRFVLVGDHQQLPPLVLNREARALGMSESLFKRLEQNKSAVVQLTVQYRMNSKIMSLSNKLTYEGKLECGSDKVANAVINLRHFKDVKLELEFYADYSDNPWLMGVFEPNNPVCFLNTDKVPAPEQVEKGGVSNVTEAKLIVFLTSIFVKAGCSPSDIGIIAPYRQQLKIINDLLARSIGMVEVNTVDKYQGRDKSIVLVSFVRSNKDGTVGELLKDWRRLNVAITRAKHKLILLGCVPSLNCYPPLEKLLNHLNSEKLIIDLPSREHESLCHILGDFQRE
Method: Nuclease assays were performed in buffer R (20 mM Na-HEPES pH 7.5, 1 mM ATP, 0.1 mM DTT, 100 μg/ml bovine serum albumin, 0.05% Triton X-100, 2 mM MgCl2, 100 mM KCl) and contained 0.5 nM ends (2-kb substrate) or 5 nM ends (the ssDNA oligonucleotide PSOL6929) of DNA. Reactions containing Bloom syndrome also included an ATP regenerating system consisting of 10 mM creatine phosphate and 50 μg/ml creatine kinase. In control reactions, DMSO was used in place of the inhibitor. Reactions with DNA2 alone were incubated at 30 °C, and those with DNA2-Bloom syndrome-Replication protein A and EXO1 were incubated at 37 °C for the indicated times. […] Gels were dried onto DEAE paper on top of Whatman filter paper (GE, Issaquah, WA, USA) and then analyzed in a BioRad Personal Molecular Imager FX phosphorimager. Band intensity was quantified using Image Lab software (Bio-Rad, Hercules, CA, USA). The fraction of DNA substrate digested was determined by measuring the amount of substrate remaining and normalizing to the total substrate in the negative control lane containing no protein.
Figure S2. […] (b) Plots showing quantitation of the experiments shown in a. […] (d) Plots showing quantitation of the experiments shown in c. […] (f) Plot showing quantitation of the experiment in e. […]

hDNA2 [2] = target: T1, hDNA2; test: ATPase activity of hDNA2 (TLC); type: biochemical; conditions: inhibitor 10 µM, 100 nM hDNA2
Method: Figure S2. […] (a) Analysis of 5’ flap processing by hDNA2 in presence of the compounds at the indicated concentration. DNA2 (2.5 nM) was incubated with the Y DNA substrate (5 nM ends) and the indicated concentration of inhibitor. (b) Plots showing quantitation of the experiments shown in a. Plotted are the average data from three independent experiments with the error bars representing one standard deviation. (c) Analysis of dsDNA unwinding by BLM. BLM (4, 8 and 16 nM), RPA (100 nM) and internally radiolabelled dsDNA (0.5 nM ends) was incubated for 20 min at 37^ºC in presence of either DMSO or NSC-105808 (10 µM) and the products were resolved on a 1% agarose gel. (d) Plots showing quantitation of the experiments shown in c. Plotted are the average data from three independent experiments with the error bars representing one standard deviation. (e) Analysis of the degradation of a 2 kb internally labeled dsDNA (0.5 nM ends) by EXO1 (5 nM) in presence of NSC-105808 (10 µM). (f) Plot showing quantitation of the experiment in e. […] 100 nM hDNA2 was incubated with γ^32P-ATP in the presence of oligonucleotide ssDNA (200 nM) for 20 minutes at 37^ºC in presence of either DMSO or inhibitor (10 µM) and the products were resolved on a TLC plate. (h) Analysis of hDNA2 binding to DNA. […]

Compound | 5′ flap processing by hDNA2 (hDNA2 [1]) | Effect on ATPase activity of DNA2 (hDNA2 [2])
O=C1C(=O)c2cc([N+](=O)[O-])ccc2-c2ccccc21 [NSC-5195242, 2-nitrophenanthrene-9,10-dione] | inhibited | do not affect
NC1=C(Br)C(=O)c2ncccc2C1=O [NSC-105808, 6-amino-7-bromoquinoline-5,8-dione] | inhibited | do not affect; also recorded: no effect
